How the values were obtained:
[1] = Binding of metal complexes to particulate carrier (1H NMR relaxation of supernatant); conditions: to aluminium hydroxide; 0.4ml 50mM metal complex, pH 7.5, 3 minutes
[2] = as above; conditions: to aluminium phosphate; 0.4ml 50mM metal complex, pH 7.5, 3 minutes
[3] = as above; conditions: to calcium hydroxide; 0.4ml 50mM metal complex, pH 7.5, 3 minutes
[4] = as above; conditions: to calcium phosphate basic; 0.4ml 50mM metal complex, pH 7.5, 3 minutes
[5] = as above; conditions: to calcium phosphate neutral; 0.4ml 50mM metal complex, pH 7.5, 3 minutes
[6] = as above; conditions: to calcium pyrophosphate; 0.4ml 50mM metal complex, pH 7.5, 3 minutes
[7] = as above; conditions: to magnesium hydroxide; 0.4ml 50mM metal complex, pH 7.5, 3 minutes
[8] = as above; conditions: to magnesium trisilicate; 0.4ml 50mM metal complex, pH 7.5, 3 minutes
[9] = as above; conditions: to sodium phosphate glass; 0.4ml 50mM metal complex, pH 7.5, 3 minutes
[10] = as above; conditions: to silica; 0.4ml 50mM metal complex, pH 7.5, 3 minutes
[11] = Binding of 153Gd labelled gadolinium complexes, radioactive assay; conditions: total activity of the filtrate as percentage of the original; 12.5mM Gd, 25mM phosphonate where present
Method: The binding of gadolinium complexes was also assayed using ¹⁵³Gd labelled solutions. The particulates were used as suspensions (250mg/ml) and isolated by centrifugation. 0.4ml of a radioactively labelled gadolinium complex was then added and the solid resuspended. After three minutes the solid was filtered through a glass sinter and washed with water (≃10ml). The total activity of the filtrate was measured and expressed as a percentage of the original. The gadolinium concentration of the complex in this assay was 12.5mM and the concentration of phosphonate (where present) was 25mM. A further assay involved the addition of 25mM, and 37.5mM Gd with concomitant increase in the phosphonate concentration.

[12] = Stability of 153Gd labelled adducts in acid solution; format: physicochemical; conditions: 5ml 0.2M HCl, 24hrs, percentage of the original activity
Method: The stability of the adducts in acid solution was assayed using ¹⁵³Gd labelled adducts. The adducts were prepared as in the binding assays described previously. 5ml of 0.2M HCl was then added to the adduct which was resuspended and left for 24hrs. The suspensions were then filtered through a glass sinter and washed with 5ml distilled water. The total filtrate was then placed into an ion chamber and the total activity measured.

[13] = Binding of metal complexes to particulate carrier (1H NMR relaxation of supernatant); conditions: to calcium phosphate ortho; 0.4ml 50mM metal complex, pH 7.5, 3 minutes

% Bound [1] [%]	% Bound [3] [%]	% Bound [4] [%]	% Bound [5] [%]	% Bound [6] [%]	% Bound [7] [%]	% Bound [8] [%]	% Bound [9] [%]	% Bound [10] [%]	BINDING TO CaPO₄ - RADIOACTIVE ASSAY [11] [%]	BINDING TO CaPYROPHOSPHATE - RADIOACTIVE ASSAY [11] [%]	PERCENTAGE ACTIVITY IN SUPERNATANT ([12]; adduct with Ca₂P₂O₇) [%]	PERCENTAGE ACTIVITY IN SUPERNATANT ([12]; adduct with Ca₃(PO₄)₂) [%]	Molecule	% Bound [2] [%]	% Bound [13] [%]
89	98	96	92	50	96	93	41	46	–	–	–	–	[Cl][Fe]([Cl])[Cl] [FeCl₃]	78	–
98	99	99	98	68	99	89	48	66	2.07	0.14	0.41	0.54	[Cl][Gd]([Cl])[Cl] [GdCl₃]	–	–

Molecule	% Bound [1] [%]	% Bound [3] [%]	% Bound [4] [%]	% Bound [5] [%]	% Bound [6] [%]	% Bound [7] [%]	% Bound [8] [%]	% Bound [9] [%]	% Bound [10] [%]	BINDING TO CaPO₄ - RADIOACTIVE ASSAY [11] [%]	BINDING TO CaPYROPHOSPHATE - RADIOACTIVE ASSAY [11] [%]	PERCENTAGE ACTIVITY IN SUPERNATANT ([12]; adduct with Ca₂P₂O₇) [%]	PERCENTAGE ACTIVITY IN SUPERNATANT ([12]; adduct with Ca₃(PO₄)₂) [%]	% Bound [2] [%]	% Bound [13] [%]
ferric citrate	80	74	80	68	28	89	50	26	16	–	–	–	–	18	82
